Where only a bound is given, the exact number is not on record here.

One experiment has as its system SH-SY5Y M-currents (KCNQ2, KCNQ3 and KCNQ5). Put plainly: SH-SY5Y native cell line FLIPR assay (voltage-sensitive dye DiBAC). It is filed as cell-based, mouse neuroblastoma, rat glioma hybrid cell line. To be noted: FLIPR assay, SH-SY5Y native cell line; Table 1; read-out: SH-SY5Y EC50. The method, boiled down:
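Response is peak DiBAC fluorescence change, normalised to the maximum from a positive control agent, sampled every 30 s over 25 min. Before compound addition, SH-SY5Y cells differentiated with PGE1 plus isomethylbutylxanthine were dye-loaded for 1 h in EBSS with […] DiBAC.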
In the case of `CC(C)(C)Cc1c(NC(=O)C2CCC(F)(F)CC2)nc2ccccn12` [Compound 87, 4,4-difluoro-N-(3-neopentylimidazo[1,2-a]pyridin-2-yl)cyclohexanecarboxamide], the EC50 was in the range of 500 to 3000 nM. The same measure, in the same setting: for `CC(C)(C)Cc1c(NC(=O)CC2CCCC2(F)F)nc2ccc(C(F)(F)F)cn12` (stereo not shown) [Compound 71, 2-(2,2-difluorocyclopentyl)-N-(3-neopentyl-6-(trifluoromethyl)imidazo[1,2-a]pyridin-2-yl)acetamide] the value was less than 500 nM; for `CC(C)(C)CC(=O)Nc1nc2ccc(C(F)(F)F)cn2c1-c1nccs1` [Compound 82, 3,3-dimethyl-N-(3-(thiazol-2-yl)-6-(trifluoromethyl)imidazo[1,2-a]pyridin-2-yl)butanamide], 3000 to 10000 nM; for `CC(C)(C)CC(=O)Nc1nc2ccc(F)cn2c1C1CC1` [Compound 14, N-(3-cyclopropyl-6-fluoroimidazo[1,2-a]pyridin-2-yl)-3,3-dimethylbutanamide], 500 to 3000 nM.

The same experiment, now with this note: FLIPR assay, SH-SY5Y native cell line; Table 2; read-out: SH-SY5Y EC50.
On to `O=C(CC1CCCC1)Nc1nc2cc(C(F)(F)F)ccn2c1-c1ccccc1` [Compound 98, 2-cyclopentyl-N-(3-phenyl-7-(trifluoromethyl)imidazo[1,2-a]pyridin-2-yl)acetamide], for which the EC50 lay in the range of 500 to 3000 nM.

Consider `O=C(CC1CCC1)Nc1nc2ccc(F)cn2c1-c1cccc(OC(F)(F)F)c1` [Compound 266, 2-cyclobutyl-N-(6-fluoro-3-(3-(trifluoromethoxy)phenyl)imidazo[1,2-a]pyridin-2-yl)acetamide], for which the EC50 was less than 500 nM.

In the case of `O=C(Nc1nc2ccc(F)cn2c1-c1ccc(OC(F)(F)F)cc1)C1CCOC1` (stereo not shown) [Compound 248, N-(6-fluoro-3-(4-(trifluoromethoxy)phenyl)imidazo[1,2-a]pyridin-2-yl)tetrahydrofuran-3-carboxamide], the EC50 was in the range of 3000 to 10000 nM. On to `CC(C(=O)Nc1nc2ccc(F)cn2c1-c1ccc(OC(F)(F)F)cc1)C(C)(C)C` (stereo not shown) [Compound 235, N-(6-fluoro-3-(4-(trifluoromethoxy)phenyl)imidazo[1,2-a]pyridin-2-yl)-2,3,3-trimethylbutanamide], for which the EC50 was less than 500 nM. As for `CC(C)(C)CC(=O)Nc1nc2ccc(F)cn2c1-c1ccccc1` [Compound 93, N-(6-fluoro-3-phenylimidazo[1,2-a]pyridin-2-yl)-3,3-dimethylbutanamide], the EC50 lay in the range of 500 to 3000 nM.

Regarding `CC(C)(C)OCCC(=O)Nc1nc2ccc(F)cn2c1-c1cccc(C(F)(F)F)c1` [Compound 287, 3-tert-butoxy-N-(6-fluoro-3-(3-(trifluoromethyl)phenyl)imidazo[1,2-a]pyridin-2-yl)propanamide], the EC50 was in the range of 500 to 3000 nM. As for `O=C(Nc1nc2ccc(F)cn2c1-c1ccc(C(F)(F)F)cc1)N1CCC(F)(F)CC1` [Compound 345, 4,4-difluoro-N-(6-fluoro-3-(4-(trifluoromethyl)phenyl)imidazo[1,2-a]pyridin-2-yl)piperidine-1-carboxamide], the EC50 fell in the range of 500 to 3000 nM. `O=C(Nc1nc2ccc(F)cn2c1-c1cccc(C(F)(F)F)c1)C1CCCC1` [Compound 289, N-(6-fluoro-3-(3-(trifluoromethyl)phenyl)imidazo[1,2-a]pyridin-2-yl)cyclopentanecarboxamide]: the EC50 is less than 500 nM. On to `CC(C)(C)CC(=O)Nc1nc2ncc(F)cn2c1-c1cccc(OC(F)(F)F)c1` [Compound 333, N-(6-fluoro-3-(3-(trifluoromethoxy)phenyl)imidazo[1,2-a]pyrimidin-2-yl)-3,3-dimethylbutanamide], for which the EC50 was in the range of 500 to 3000 nM. Consider `O=C(Cc1ccc(F)cc1)Nc1nc2cc(C(F)(F)F)ccn2c1-c1ccc(F)cc1` [Compound 111, 2-(4-fluorophenyl)-N-(3-(4-fluorophenyl)-7-(trifluoromethyl)imidazo[1,2-a]pyridin-2-yl)acetamide], for which the EC50 lay in the range of 500 to 3000 nM.

Turning to `CC(C)(C)NC(=O)Nc1nc2ccc(F)cn2c1-c1ccc(C(F)(F)F)cc1` [Compound 215, 1-tert-butyl-3-(6-fluoro-3-(4-(trifluoromethyl)phenyl)imidazo[1,2-a]pyridin-2-yl)urea], the EC50 lay in the range of 500 to 3000 nM.

In the case of `CC(C)(C)CC(=O)Nc1nc2c(F)cc(F)cn2c1-c1ccc(OC(F)(F)F)cc1` [Compound 262, N-(6,8-difluoro-3-(4-(trifluoromethoxy)phenyl)imidazo[1,2-a]pyridin-2-yl)-3,3-dimethylbutanamide], the EC50 was less than 500 nM. With `C#CCCCC(=O)Nc1nc2ccc(F)cn2c1-c1ccc(F)cc1` [Compound 151, N-(6-fluoro-3-(4-fluorophenyl)imidazo[1,2-a]pyridin-2-yl)hex-5-ynamide], the EC50 lay within 500 to 3000 nM. Consider `O=C(Cc1ccc(F)cc1)Nc1nc2ccc(F)cn2c1-c1ccc(OC(F)(F)F)c(F)c1` [Compound 296, N-(6-fluoro-3-(3-fluoro-4-(trifluoromethoxy)phenyl)imidazo[1,2-a]pyridin-2-yl)-2-(4-fluorophenyl)acetamide], for which the EC50 is less than 500 nM. Turning to `O=C(Nc1nc2ccc(F)cn2c1-c1cccc(C(F)(F)F)c1)C1CCC(F)(F)CC1` [Compound 328, 4,4-difluoro-N-(6-fluoro-3-(3-(trifluoromethyl)phenyl)imidazo[1,2-a]pyridin-2-yl)cyclohexanecarboxamide], the EC50 was less than 500 nM. On the same count and under the same terms, with `O=C(Nc1nc2ccc(F)cn2c1-c1ccc(OC(F)(F)F)cc1)[C@@H]1CCCO1` [Compound 244, (S)—N-(6-fluoro-3-(4-(trifluoromethoxy)phenyl)imidazo[1,2-a]pyridin-2-yl)tetrahydrofuran-2-carboxamide] the figure was 3000 to 10000 nM; with `CC(C)(C)CC(=O)Nc1nc2ccc(C(F)(F)F)cn2c1-c1ccc(F)cc1` [Compound 120, N-(3-(4-fluorophenyl)-6-(trifluoromethyl)imidazo[1,2-a]pyridin-2-yl)-3,3-dimethylbutanamide], less than 500 nM. As for “2-(3-chlorophenyl)-N-(6-fluoro-3-(4-(trifluoromethoxy)phenyl)imidazo yl)acetamide [Compound 239]”, the EC50 is less than 500 nM. The same measure, in the same setting: with `CC(C)(C)CC(=O)Nc1nc2ccccn2c1-c1cccc(OC(F)(F)F)c1` [Compound 342, 3,3-dimethyl-N-(3-(3-(trifluoromethoxy)phenyl)imidazo[1,2-a]pyridin-2-yl)butanamide] the figure was less than 500 nM; with `CC(C)(C)CC(=O)Nc1nc2ccc(C#N)cn2c1-c1ccc(C(F)(F)F)cc1` [Compound 259, N-(6-cyano-3-(4-(trifluoromethyl)phenyl)imidazo[1,2-a]pyridin-2-yl)-3,3-dimethylbutanamide], less than 500 nM; with `O=C(CCC(F)(F)F)Nc1nc2ccc(F)cn2c1-c1ccc(OC(F)(F)F)c(F)c1` [Compound 303, 4,4,4-trifluoro-N-(6-fluoro-3-(3-fluoro-4-(trifluoromethoxy)phenyl)imidazo[1,2-a]pyridin-2-yl)butanamide], 500 to 3000 nM. Consider `O=C(Cc1ccc(F)cc1)Nc1nc2ccc(F)cn2c1-c1ccc(F)cc1` [Compound 102, N-(6-fluoro-3-(4-fluorophenyl)imidazo[1,2-a]pyridin-2-yl)-2-(4-fluorophenyl)acetamide], for which the EC50 was less than 500 nM.

The same experiment, now with this note: SH-SY5Y native cell line, FLIPR assay (Table 3); read-out: SH-SY5Y EC50.
On to `Cc1ccc2nc(NC(=O)CC(C)(C)C)c(-c3nccs3)n2n1` [Compound 387, 3,3-dimethyl-N-(6-methyl-3-(thiazol-2-yl)imidazo[1,2-b]pyridazin-2-yl)butanamide], for which the EC50 was in the range of 3000 to 10000 nM.

Regarding `CC(C)(C)CC(=O)Nc1nc2ccc(F)cn2c1-c1ccc(C#N)nc1` [Compound 350, N-(3-(6-cyanopyridin-3-yl)-6-fluoroimidazo[1,2-a]pyridin-2-yl)-3,3-dimethylbutanamide], the EC50 is 500 to 3000 nM. Take `CC(C)(C)CC(=O)Nc1nc2ccc(F)cn2c1-c1cc(Cl)ccn1` [Compound 364, N-(3-(4-chloropyridin-2-yl)-6-fluoroimidazo[1,2-a]pyridin-2-yl)-3,3-dimethylbutanamide]: the EC50 lay in the range of 500 to 3000 nM. For the molecule `CC(C)(C)CC(=O)Nc1nc2ccc(F)cn2c1-c1ncccn1` [Compound 362, N-(6-fluoro-3-(pyrimidin-2-yl)imidazo[1,2-a]pyridin-2-yl)-3,3-dimethylbutanamide], the EC50 was in the range of 3000 to 10000 nM. `CC(C)(C)CC(=O)Nc1nc2ccc(C(F)(F)F)cn2c1-c1nc2ccccc2s1` [Compound 376, N-(3-(benzo[d]thiazol-2-yl)-6-(trifluoromethyl)imidazo[1,2-a]pyridin-2-yl)-3,3-dimethylbutanamide]: the EC50 is less than 500 nM. In the case of `O=C(CC1CCCC1)Nc1nc2ccc(F)cn2c1-c1nc2ccccc2s1` [Compound 380, N-(3-(benzo[d]thiazol-2-yl)-6-fluoroimidazo[1,2-a]pyridin-2-yl)-2-cyclopentylacetamide], the EC50 was in the range of 500 to 3000 nM. The same measure, in the same setting: with `CC(C)(C)CC(=O)Nc1nc2ccc(F)cn2c1-c1cncc(C(F)(F)F)c1` [Compound 355, N-(6-fluoro-3-(5-(trifluoromethyl)pyridin-3-yl)imidazo[1,2-a]pyridin-2-yl)-3,3-dimethylbutanamide] the figure was 3000 to 10000 nM; with `CC(C)(C)CC(=O)N(C(=O)CC(C)(C)C)c1nc2ccc(F)cn2c1-c1cccc(C(F)(F)F)n1` [Compound 357, N-(3,3-dimethylbutanoyl)-N-(6-fluoro-3-(6-(trifluoromethyl)pyridin-2-yl)imidazo[1,2-a]pyridin-2-yl)-3,3-dimethylbutanamide], 3000 to 10000 nM. With `Cc1ccc2nc(NC(=O)C3CCC(F)(F)CC3)c(-c3cc(C(F)(F)F)ccn3)n2n1` [Compound 397, 4,4-difluoro-N-(6-methyl-3-(4-(trifluoromethyl)pyridin-2-yl)imidazo[1,2-b]pyridazin-2-yl)cyclohexanecarboxamide], the EC50 lay in the range of 3000 to 10000 nM.

For the molecule `O=C(Nc1nc2ccccn2c1-c1cc(C(F)(F)F)ccn1)C1CC1(F)F` (stereo not shown) [Compound 413, 2,2-difluoro-N-(3-(4-(trifluoromethyl)pyridin-2-yl)imidazo[1,2-a]pyridin-2-yl)cyclopropanecarboxamide], the EC50 lay in the range of 500 to 3000 nM.

The same experiment, now with this note: read-out: SH-SY5Y_EC50.
`CC(C)(C)CC(=O)Nc1nc2ccc(F)cn2c1C1CC1` [Compound 14, N-(3-cyclopropyl-6-fluoroimidazo[1,2-a]pyridin-2-yl)-3,3-dimethylbutanamide]: the EC50 amounted to 2550 nM.

(Values after patent publication US9018208B2, “Heterocycles as potassium channel modulators” (Icagen Inc., priority 2007, dated 2015).)
